Measured values: ChEMBL document CHEMBL6177951, “Synthesis and anti-MRSA activity of quaternized small molecule antimicrobial peptide mimics based on norharmane” (Eur J Med Chem, 2025)
The source made the active and inactive calls. The calls are words filed in the database; no cut-off is given here.

What was measured:
Staphylococcus aureus [1] = test: Antibacterial activity against Staphylococcus aureus ATCC 25923 assessed as inhibition of bacterial growth incubated for 14 hrs by two-fold serial dilution method; format: functional
Staphylococcus aureus [2] = test: Antibacterial activity against methicillin-resistant Staphylococcus aureus ATCC 33591 assessed as inhibition of bacterial growth incubated for 14 hrs by two-fold serial dilution method; format: functional
Staphylococcus aureus [3] = test: Antibacterial activity against methicillin-resistant Staphylococcus aureus clinical isolate M-14 incubated for 14 hrs by two-fold serial dilution method; format: functional
Staphylococcus aureus [4] = test: Antibacterial activity against methicillin-resistant Staphylococcus aureus clinical isolate M-15 incubated for 14 hrs by two-fold serial dilution method; format: functional
Staphylococcus aureus [5] = test: Antibacterial activity against methicillin-resistant Staphylococcus aureus clinical isolate M-16 incubated for 14 hrs by two-fold serial dilution method; format: functional
Staphylococcus aureus [6] = test: Antibacterial activity against methicillin-resistant Staphylococcus aureus clinical isolate M-17 incubated for 14 hrs by two-fold serial dilution method; format: functional
Staphylococcus aureus [7] = test: Antibacterial activity against methicillin-resistant Staphylococcus aureus clinical isolate M-20 incubated for 14 hrs by two-fold serial dilution method; format: functional
Staphylococcus aureus [8] = test: Antibacterial activity against methicillin-resistant Staphylococcus aureus clinical isolate M-21 incubated for 14 hrs by two-fold serial dilution method; format: functional
Staphylococcus aureus [9] = test: Antibacterial activity against methicillin-resistant Staphylococcus aureus clinical isolate M-22 incubated for 14 hrs by two-fold serial dilution method; format: functional
Staphylococcus aureus [10] = test: Antibacterial activity against Staphylococcus aureus ATCC 33591 assessed as inhibition of bacterial growth at 1 to 2 times MIC measured after 24 hrs by growth kinetic assay; format: functional, organism-based
Staphylococcus aureus [11] = test: Antibacterial activity against Staphylococcus aureus ATCC 33591 assessed as inhibition of bacterial growth at 0.5 times MIC measured at 0 to 12 hrs by growth kinetic assay; format: functional, organism-based; details: time 0-12 hrs
Staphylococcus aureus [12] = test: Antibacterial activity against Staphylococcus aureus ATCC 33591 assessed as log reduction in bacterial growth at 2 times MIC measured at 6 hrs by time-kill kinetic assay; format: functional
Staphylococcus aureus [13] = test: Antibacterial activity against Staphylococcus aureus ATCC 33591 assessed as log reduction in bacterial growth at 4 times MIC measured at 6 hrs by time-kill kinetic assay; format: functional
[14] = Hemolytic activity in sheep RBC assessed as hemolysis at 1024 ug/ml incubated for 1 hrs relative to control; format: toxicity, cell-based, Ovis aries, Erythrocyte; details: sheep red blood cells, at 1024 µg/mL, read-out: Activity
L02 = test: Cytotoxicity against human L02 cells assessed as reduction in cell viability at 4 ug/ml incubated for 24 hrs by CCK-8 assay relative to control; format: toxicity, cell-based; details: l02, 24 h, at 4 µg/mL
[15] = Toxicity in female Kunming mouse assessed as pathological changes in skin tissue at 5 to 20 mg/kg, sc measured after 48 hrs by H and E staining based analysis; format: organism-based; details: in vivo, dose 5-20 mg/kg
[16] = Toxicity in female Kunming mouse assessed as inflammatory cell infiltration at 5 to 20 mg/kg, sc measured after 48 hrs by H and E staining based analysis; format: organism-based; details: in vivo, dose 5-20 mg/kg
[17] = Acute toxicity in female Kunming mouse assessed as aberrant appearance at 500 to 2000 mg/kg, sc measured after 7 days; format: organism-based; details: in vivo, 168 h, dose 500-2000 mg/kg, time 7 day
[18] = Acute toxicity in female Kunming mouse assessed as mortality at 500 to 2000 mg/kg, sc measured after 7 days; format: organism-based; details: in vivo, 168 h, dose 500-2000 mg/kg, time 7 day
Staphylococcus aureus [19] = test: In vivo antibacterial activity against methicillin-resistant Staphylococcus aureus infected in female Kunming mouse skin infection model assessed as appearance of smooth inside skin at 20 mg/kg measured after 48 hrs; format: functional, organism-based
Staphylococcus aureus [20] = test: Antibiofilm activity against methicillin-resistant Staphylococcus aureus assessed as inhibition of biofilm formation at 2 ug/ml incubated for 24 hrs by crystal violet staining based analysis relative to control; format: functional; design: scale not given: the % may be the effect or the level left; details: dose 2 µg/ml
Staphylococcus aureus [21] = test: Induction of morphological changes in methicillin-resistant Staphylococcus aureus assessed as appearance of rough cell surface at 0.5 ug/ml incubated for 6 hrs by SEM analysis; format: functional, organism-based; details: dose 0.5 µg/ml
Staphylococcus aureus [22] = test: Induction of morphological changes in methicillin-resistant Staphylococcus aureus assessed as appearance of broken cells at 0.5 ug/ml incubated for 6 hrs by SEM analysis; format: functional, organism-based; details: dose 0.5 µg/ml
Staphylococcus aureus [23] = test: Induction of morphological changes in methicillin-resistant Staphylococcus aureus assessed as appearance of fragments at 0.5 ug/ml incubated for 6 hrs by SEM analysis; format: functional, organism-based; details: dose 0.5 µg/ml
Staphylococcus aureus [24] = test: Antibacterial activity against methicillin-resistant Staphylococcus aureus assessed as change in cell surface zeta potential at 256 ug/ml incubated for 8 hrs; format: functional, organism-based; details: dose 256.0 µg/ml
Staphylococcus aureus [25] = test: Antibacterial activity against methicillin-resistant Staphylococcus aureus assessed as reduction in bacterial growth in presence of 16 ug/ml peptidoglycan incubated for 0.5 hrs by exogenous addition assay; format: functional, organism-based
Cell membrane = test: Induction of cell membrane integrity in methicillin-resistant Staphylococcus aureus assessed as appearance of blue and red fluorescence at 0.25 ug/ml incubated for 8 hrs by DAPI/PI staining based fluorescence microscopic analysis; format: subcellular; details: dose 0.25 µg/ml
Staphylococcus aureus [26] = test: Antibacterial activity against methicillin-resistant Staphylococcus aureus assessed as reduction in LDH activity incubated for 8 hrs; format: functional, organism-based; details: dose 0.25-2 µg/ml
Staphylococcus aureus [27] = test: Induction of oxidative damage in methicillin-resistant Staphylococcus aureus assessed as reduction in SOD activity incubated for 8 hrs; format: functional, organism-based; details: dose 0.25-2 µg/ml
Calf thymus DNA = test: Binding affinity to calf thymus DNA assessed as binding constant by ITC assay; format: nucleic-acid assay; details: Bos taurus
Staphylococcus aureus [28] = test: Antibacterial activity against methicillin-resistant Staphylococcus aureus assessed as increase MIC incubated for 6 hrs in presence of 70 to 100% sheep plasma; format: functional

C[n+]1ccc2c3ccccc3n(CCCCCCCCCCCn3c4ccccc4c4cc[n+](C)cc43)c2c1.[I-].[I-]
MIC (Staphylococcus aureus [1]): 1 µg/mL | MIC (Staphylococcus aureus [2]): 0.25 µg/mL | MIC (Staphylococcus aureus [3]): 0.25 µg/mL | MIC (Staphylococcus aureus [4]): 0.5 µg/mL | MIC (Staphylococcus aureus [5]): 0.5 µg/mL | MIC (Staphylococcus aureus [6]): 0.5 µg/mL | MIC (Staphylococcus aureus [7]): 0.5 µg/mL | MIC (Staphylococcus aureus [8]): 1 µg/mL | MIC (Staphylococcus aureus [9]): 0.5 µg/mL | Activity (Staphylococcus aureus [10]): Active | Activity (Staphylococcus aureus [11]): Active | Activity (Staphylococcus aureus [12]): 4.26 log10CFU/ml | Activity (Staphylococcus aureus [13]): 5.31 log10CFU/ml | hemolysis at 1 h, 1024 ug/ml [14]: 26.4% | Activity (L02): 71.86% | Activity [15]: Non-toxic | Activity [16]: Non-toxic | Activity [17]: Non-toxic | Activity [18]: Non-toxic | Activity (Staphylococcus aureus [19]): Active | Activity (Staphylococcus aureus [20]): 79% | Activity (Staphylococcus aureus [21]): Active | Activity (Staphylococcus aureus [22]): Active | Activity (Staphylococcus aureus [23]): Active | Activity (Staphylococcus aureus [24]): Active | Activity (Staphylococcus aureus [25]): Active | Activity (Cell membrane): Active | Activity (Staphylococcus aureus [26]): Dose-dependent-effect | Activity (Staphylococcus aureus [27]): Dose-dependent-effect | K (Calf thymus DNA): 2.21 10^5/M | MIC (Staphylococcus aureus [28]): 0.5 µg/mL
